EP3383888B9, “NEW PEPTIDES HAVING ANTIMICROBIAL ACTIVITY AND NEW ENZYME CAPABLE OF CONVERTING L-CONFIGURED RESIDUE IN D-CONFIGURED AMINO ACID IN A PEPTIDE” (Institut national de recherche pour l'agriculture, …, priority 2015, dated 2017)
Square brackets hold non-standard residues; d marks the D form. Ends that are not written are not given here. Peptide text beside a SMILES is read from it. d(aIle) = CC[C@H](C)[C@@H](N)C(=O)O

Key:
B. subtilis [1] = test: Inhibition assay on solid medium (plate growth inhibition); type: cell-based, Bacillus subtilis; settings: 200 µg of peptide spotted, 37°C, Fig. 5A
Method: An overnight culture of the bacterial strain to be assayed was freshly inoculated to sterile BHI liquid medium. After 4 hours of bacterial growth at 37°C, the medium was diluted to 1/1000 and inoculated into a soft agarose medium pre-heated at 42°C. The agarose medium containing bacteria was overlaid on a previously jellified sterile BHI agarose layer. 200 µg of peptide was spotted onto the plate and bacterial growth proceeded at 37°C.

B. subtilis [2] = test: Inhibition assay on liquid medium (OD at 600 nm); type: cell-based, Bacillus subtilis; settings: for Growth of B. subtilis in liquid LB medium (bacterial growth inhibition): Fig. 5B, Fig. 8a
Method: (§1) An overnight culture of the bacterial strain to be assayed was freshly inoculated to sterile LB liquid medium. After 4 hours of bacterial growth at 37°C, the medium was diluted to 1/10,000 and inoculated into sterile liquid LB or BHI medium. Peptide solution was added (1/100) to a final concentration ranging from 0.01 to 100µM and OD at 600 nm was recorded continuously using a Tecan microplate reader (Infinite® 200 PRO series).

Streptococcus agalactiae = test: Inhibition assay on liquid medium (OD at 600 nm); type: cell-based; settings: peptide at 100µM; Fig. 12
Method: as §1

| Molecule | Plate growth inhibition assay of B. subtilis (B. subtilis [1]) | Growth of B. subtilis in liquid LB medium (bacterial growth inhibition) (B. subtilis [2]; liquid LB medium) | Growth of B. subtilis in liquid LB medium (bacterial growth inhibition) (B. subtilis [2]; liquid LB medium, listed as epimerized peptide) | Growth of B. subtilis after addition of peptide at mid-exponential phase (cell density) (B. subtilis [2]; liquid LB medium, peptide added after 3 hours of growth, Fig. 9) | Growth of Streptococcus agalactiae in liquid BHI medium (Streptococcus agalactiae) | potency relative to the YydF18-49DD peptide (B. subtilis [2]; B. subtilis growth ratio, Fig. 8b&c) |
| --- | --- | --- | --- | --- | --- | --- |
| CC[C@H](C)[C@@H](NC(=O)[C@H](Cc1c[nH]c2ccccc12)NC(=O)[C@H](CCCNC(=N)N)NC(=O)[C@H](CC(N)=O)NC(=O)[C@H](CCC(=O)O)NC(=O)[C@H](CCCCN)NC(=O)[C@H](CO)NC(=O)[C@H](CCCCN)NC(=O)[C@H](NC(=O)[C@H](Cc1ccccc1)NC(=O)[C@H](Cc1ccc(O)cc1)NC(=O)[C@H](Cc1c[nH]c2ccccc12)NC(=O)[C@H](CC(C)C)NC(=O)[C@H](CC(=O)O)NC(=O)[C@H](CC(N)=O)NC(=O)[C@@H](NC(=O)[C@H](CCCCN)NC(=O)[C@H](C)NC(=O)[C@H](CC(C)C)NC(=O)[C@H](CCCCN)NC(=O)[C@H](CCC(N)=O)NC(=O)[C@H](CO)NC(=O)[C@H](CCC(=O)O)NC(=O)[C@H](CC(=O)O)NC(=O)[C@H](CC(C)C)NC(=O)[C@H](CC(C)C)NC(=O)CNC(C)=O)C(C)C)C(C)C)C(=O)N[C@@H](CC(C)C)C(=O)NCC(=O)N[C@@H](CO)C(=O)NCC(=O)N[C@@H](Cc1c[nH]cn1)C(=O)O [YydF18-49DD, Ac-GLLDESQKLAKVNDLWYF{d-V}KSKENRW{d-I}LGSGH (SEQ ID No 20)] (Ac-GLLDESQKLAKVNDLWYF[dV]KSKENRW[d(aIle)]LGSGH-OH) | strong inhibition growth | bacterial growth inhibition | strong and persistent inhibition |  |  |  |
| Ac-GLLDESQKLAKVNDLWYFVKSKENRWILGSGH (SEQ ID No 20) [YydF18-49, truncated form of YydF, residues 18 to 49, no modification (all L-amino acids)] | devoid of activity |  |  | a clear slow down followed by a decrease of the cell density |  |  |
| WYFVKSQSNRWIVGSGH (SEQ ID No 65) (WYF[dV]KSQSNRW[dI]VGSGH) [Peptide-SP] |  |  |  |  | inhibitors |  |
| YydF33-49DD: peptide of SEQ ID No 61 with the two epimerized residues D-Val36 and D-Ile44 (WYF[dV]KSKENRW[dI]LGSGH) |  | inhibit bacterial growth |  |  | inhibited | 100 times |
